What follows are molecules tested against T1, h5-HT4b (Homo sapiens, UniProt Q13639) (assay: 5HT4 antagonism: [3H]GR113808 binding to membranes of h5-HT4b-HEK 293 clone 9 cells). Settings: displacement of [3H]GR113808 0.1 nM, h5-HT4b-HEK 293 membranes, 30 min at 25° C.; read-out: pIC50 (5HT4 antagonistic data) (converted).
T1 construct: expressed in transfected cells; host or cells: HEK 293 (clone 9), membrane preparation
T1 sequence (Q13639 whole entry): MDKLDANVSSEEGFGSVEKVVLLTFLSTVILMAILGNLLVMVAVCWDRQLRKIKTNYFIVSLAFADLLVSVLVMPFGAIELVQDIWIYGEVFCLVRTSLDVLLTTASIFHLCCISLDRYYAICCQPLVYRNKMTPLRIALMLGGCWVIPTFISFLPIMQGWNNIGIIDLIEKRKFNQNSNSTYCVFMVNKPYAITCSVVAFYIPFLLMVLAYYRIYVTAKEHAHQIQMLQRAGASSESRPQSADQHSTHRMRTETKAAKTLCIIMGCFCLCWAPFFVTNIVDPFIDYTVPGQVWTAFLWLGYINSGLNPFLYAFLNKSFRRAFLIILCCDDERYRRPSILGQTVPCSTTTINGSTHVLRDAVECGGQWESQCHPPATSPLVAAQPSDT
Procedure: h5-HT4b-HEK 293 clone 9 cells were cultured in 150 mm Petri dishes and washed twice with cold PBS. The cells were then scraped from the plates and suspended in 50 mM Tris-HCl buffer, pH 7.4 and harvested by centrifugation at 23,500 rpm for 10 minutes. The pellet was resuspended in 5 mM Tris-HCl, pH 7.4 and homogenized with an Ultra Turrax homogenizer. The membranes were collected by centrifugation at 30,000 rpm for 20 min, resuspended in 50 mM Tris-HCl pH 7.4 and stored at −80° C. For the experiment, assay mixtures (0.5 ml) contained 50 μl of the tritiated ligand (5-HT4 antagonist [^3H]GR113808 0.1 nM) and 0.4 ml membrane preparation (15 μg protein/ml). 50 μl of 10% DMSO was added for total binding. 50 μl of 1 μM of (+)-trans-(1-butyl-3-hydroxy-4-piperidinyl)methyl 8-amino-7-chloro-2,3-dihydro-1,4-benzodioxin-5-carboxylate (a proprietary 5HT4 agonist of Janssen Pharmaceutica) was added for determination of non-specific binding.
The [^3H]GR113808 assay buffer was 50 mM HEPES-NaOH, pH 7.4. The mixtures were incubated for 30 min at 25° C. The incubation was terminated by filtration over a Unifilter 96 GF/B presoaked in 0.1% polyethylenimine, followed by six washing steps with 50 mM HEPES-NaOH, pH 7.4.
Molecule `Nc1cc2c(c(C(=O)NC[C@@H]3CCN(CCCOC4CCCCC4)C[C@H]3O)c1)OCCO2` [compound 85] has an IC50 of 6.31 nM.
Molecule `Nc1cc2c(c(C(=O)NC[C@@H]3CCN(CCOCCO)C[C@H]3O)c1)OCCO2` [compound 86] has an IC50 of 132 nM.
For `COc1cc2c(c(C(=O)NC[C@@H]3CCNC[C@H]3O)c1)OCCCO2` [compound 88], the IC50 was 257 nM.
Work on `CNCCCCN1CC[C@@H](CNC(=O)c2cc(N)c(Cl)c3c2OCCO3)[C@H](O)C1` [compound 89] yielded an IC50 of 30.9 nM.
`CNCCCCN1CC[C@@H](CNC(=O)c2cc(NC)cc3c2OCCO3)[C@H](O)C1` [compound 90] gave an IC50 of 34.7 nM.
In the case of `CNCCCCN1CC[C@@H](CNC(=O)c2cc(NC)cc3c2OCCCO3)[C@H](O)C1` [compound 91], the IC50 is reported as 229 nM.
Molecule `Cc1nccnc1NCCN1CC[C@@H](CNC(=O)c2cc(N)c(Cl)c3c2OCCCO3)[C@H](O)C1` [compound 92] has an IC50 of 12 nM.
Molecule `CC(C)OCCCN1CC[C@@H](CNC(=O)c2cc(N)c(Cl)c3c2OCCO3)[C@H](O)C1` [compound 93] has an IC50 of 17 nM.
In the case of `CNCCCCN1CC[C@@H](CNC(=O)c2cc(N)c(Cl)c3c2OCCCO3)[C@H](O)C1` [compound 94], the IC50 is reported as 34.7 nM.
For `CNc1cc2c(c(C(=O)NC[C@@H]3CCN(CCNc4nccnc4C)C[C@H]3O)c1)OCCCO2` [compound 95], the IC50 was 36.3 nM.
Work on `CC(C)OCCCN1CC[C@@H](CNC(=O)c2cc(N)c(Cl)c3c2OCCCO3)[C@H](O)C1` [compound 96] yielded an IC50 of 6.17 nM.
`CNc1cc2c(c(C(=O)NC[C@@H]3CCN(CCCCO)C[C@H]3O)c1)OCCO2` [compound 97] gave an IC50 of 15.8 nM.
Work on `Nc1cc2c(c(C(=O)NC[C@@H]3CCN(CCCCO)C[C@H]3O)c1)OCCO2` [compound 98] yielded an IC50 of 14.8 nM.
Work on `CS(=O)(=O)NCCN1CC[C@@H](CNC(=O)c2cc(N)cc3c2OCCCO3)[C@H](O)C1` [compound 99] yielded an IC50 of 72.4 nM.
Molecule `CNc1cc(C(=O)NC[C@@H]2CCN(CCCO)C[C@H]2O)c2c(c1Cl)OCCO2` [compound 100] has an IC50 of 16.6 nM.
In the case of `CNc1cc2c(c(C(=O)NC[C@@H]3CCN(CCCOC(C)C)C[C@H]3O)c1)OCCCO2` [compound 101], the IC50 is reported as 50.1 nM.
With `CNc1cc2c(c(C(=O)NC[C@@H]3CCN(CCNS(C)(=O)=O)C[C@H]3O)c1)OCCCO2` [compound 102] the IC50 was 120 nM.
For `CNc1cc2c(c(C(=O)NC[C@@H]3CCN(CCNS(C)(=O)=O)C[C@H]3O)c1)OCCO2` [compound 103], the IC50 was 22.9 nM.
Molecule `CNCCCCN1CC[C@@H](CNC(=O)c2cc(N)cc3c2OCCO3)[C@H](O)C1` [compound 104] has an IC50 of 33.9 nM.
For `CNc1cc(C(=O)NC[C@@H]2CCNC[C@H]2O)c2c(c1Cl)OCCO2` [compound 105], the IC50 was 437 nM.
With `CNCCCCN1CC[C@@H](CNC(=O)c2cc(N)cc3c2OCCCO3)[C@H](O)C1` [compound 106] the IC50 was 363 nM.
With `Nc1cc2c(c(C(=O)NC[C@@H]3CCN(CCC4OCCO4)C[C@H]3O)c1)OCCO2` [compound 108] the IC50 was 25.7 nM.
For `COCCCN1CC[C@@H](CNC(=O)c2cc(N)cc3c2OCCO3)[C@H](O)C1` [compound 109], the IC50 was 36.3 nM.
In the case of `CCCCN1CC[C@@H](CNC(=O)c2cc(N)cc3c2OCCCO3)[C@H](O)C1` [compound 110], the IC50 is reported as 19.1 nM.
In the case of `COCCCN1CC[C@@H](CNC(=O)c2cc(N)cc3c2OCCCO3)[C@H](O)C1` [compound 111], the IC50 is reported as 20 nM.
With `Nc1cc2c(c(C(=O)NC[C@@H]3CCN(CCCO)C[C@H]3O)c1)OCCCO2` [compound 112] the IC50 was 13.2 nM.
With `CCCCN1CC[C@@H](CNC(=O)c2cc(NC)cc3c2OCCCO3)[C@H](O)C1` [compound 114] the IC50 was 8.32 nM.
`CNc1cc2c(c(C(=O)NC[C@@H]3CCN(CCCOC)C[C@H]3O)c1)OCCO2` [compound 115] was tested, and the IC50 was 16.2 nM.
`CCCCN1CC[C@@H](CNC(=O)c2cc(NC)cc3c2OCCO3)[C@H](O)C1` [compound 116] showed an IC50 of 16.2 nM.
Molecule `Nc1cc2c(c(C(=O)NC[C@@H]3CCN(CCCO)C[C@H]3O)c1)OCCO2` [compound 117] has an IC50 of 1.55 nM.
In the case of `Nc1cc2c(c(C(=O)NC[C@@H]3CCN(CCC4OCCO4)C[C@H]3O)c1)OCCCO2` [compound 118], the IC50 is reported as 60.3 nM.
`CCCCN1CC[C@@H](CNC(=O)c2cc(COC)cc3c2OCCCO3)[C@H](O)C1` [compound 119] gave an IC50 of 8.91 nM.
`N#CCc1cc2c(c(C(=O)NC[C@@H]3CCN(CCCO)C[C@H]3O)c1)OCCCO2` [compound 120] showed an IC50 of 43.7 nM.
`N#CCc1cc2c(c(C(=O)NC[C@@H]3CCNC[C@H]3O)c1)OCCCO2` [compound 121] gave an IC50 of 708 nM.
Work on `COCc1cc2c(c(C(=O)NC[C@@H]3CCN(CCCO)C[C@H]3O)c1)OCCCO2` [compound 122] yielded an IC50 of 32.4 nM.
`N#CCc1cc2c(c(C(=O)NC[C@@H]3CCN(CCC4OCCO4)C[C@H]3O)c1)OCCCO2` [compound 123] was tested, and the IC50 was 43.7 nM.
With `COCCCN1CC[C@@H](CNC(=O)c2cc(COC)cc3c2OCCCO3)[C@H](O)C1` [compound 124] the IC50 was 26.9 nM.
Molecule `COCc1cc2c(c(C(=O)NC[C@@H]3CCN(CCC4OCCO4)C[C@H]3O)c1)OCCCO2` [compound 126] has an IC50 of 18.2 nM.
In the case of `N#CCc1cc2c(c(C(=O)NC[C@@H]3CCN(CC4CCCO4)C[C@H]3O)c1)OCCCO2` (some centres unmarked) [compound 127], the IC50 is reported as 17 nM.
`COc1cc2c(c(C(=O)NC[C@@H]3CCN(CCCC#N)C[C@H]3O)c1)OCCCO2` [compound 128] showed an IC50 of 16.6 nM.
Molecule `CNc1cc(C(=O)NC[C@@H]2CCN(CC3CCCO3)C[C@H]2O)c2c(c1Cl)OCCO2` (some centres unmarked) [compound 129] has an IC50 of 16.2 nM.
With `CNc1cc(C(=O)NC[C@@H]2CCN(CCCC#N)C[C@H]2O)c2c(c1Cl)OCCO2` [compound 130] the IC50 was 55 nM.
For `CCCNc1cc2c(c(C(=O)NC[C@@H]3CCN(CCCC#N)C[C@H]3O)c1)OCCCO2` [compound 131], the IC50 was 135 nM.
`CS(=O)(=O)NCCN1CC[C@@H](CNC(=O)c2cc(N)cc3c2OCCO3)[C@H](O)C1` [compound 132] showed an IC50 of 91.2 nM.
For `Nc1cc(C(=O)NC[C@@H]2CCNC[C@H]2O)c2c(c1Br)OCCO2` [compound 133], the IC50 was 537 nM.
In the case of `CCCCN1CC[C@@H](CNC(=O)c2cc(NCCC)cc3c2OCCCO3)[C@H](O)C1` [compound 134], the IC50 is reported as 95.5 nM.
`CCCNc1cc2c(c(C(=O)NC[C@@H]3CCN(CCC4OCCO4)C[C@H]3O)c1)OCCCO2` [compound 135] showed an IC50 of 93.3 nM.
For `CNc1cc2c(c(C(=O)NC[C@@H]3CCN(CCCCO)C[C@H]3O)c1)OCCCO2` [compound 136], the IC50 was 81.3 nM.
For `Nc1cc(C(=O)NC[C@@H]2CCN(CC3CCCO3)C[C@H]2O)c2c(c1Br)OCCO2` (some centres unmarked) [compound 137], the IC50 was 27.5 nM.
`N#CCCCCN1CC[C@@H](CNC(=O)c2cc(N)c(Br)c3c2OCCO3)[C@H](O)C1` [compound 138] gave an IC50 of 81.3 nM.
`COCCCCN1CC[C@@H](CNC(=O)c2cc(N)c(Br)c3c2OCCO3)[C@H](O)C1` [compound 139] gave an IC50 of 39.8 nM.
`Nc1cc(C(=O)NC[C@@H]2CCN(CCCO)C[C@H]2O)c2c(c1Br)OCCO2` [compound 140] gave an IC50 of 93.3 nM.
In the case of `Nc1cc(C(=O)NC[C@@H]2CCN(CCC3OCCO3)C[C@H]2O)c2c(c1Br)OCCO2` [compound 141], the IC50 is reported as 43.7 nM.
Work on `Nc1cc(C(=O)NC[C@@H]2CCNC[C@H]2O)c2c(c1Br)OCCCO2` [compound 142] yielded an IC50 of 1150 nM.
With `CCCCNc1cc2c(c(C(=O)NC[C@@H]3CCN(CCCC)C[C@H]3O)c1)OCCCO2` [compound 143] the IC50 was 61.7 nM.
With `CCCCNc1cc2c(c(C(=O)NC[C@@H]3CCN(CCC4OCCO4)C[C@H]3O)c1)OCCCO2` [compound 144] the IC50 was 112 nM.
`N#CCCCN1CC[C@@H](CNC(=O)c2cc(N)c(Br)c3c2OCCCO3)[C@H](O)C1` [compound 145] showed an IC50 of 63.1 nM.
Molecule `Nc1cc(C(=O)NC[C@@H]2CCN(CCC3OCCO3)C[C@H]2O)c2c(c1Br)OCCCO2` [compound 146] has an IC50 of 34.7 nM.
`Nc1cc(C(=O)NC[C@@H]2CCN(CCCO)C[C@H]2O)c2c(c1Br)OCCCO2` [compound 147] gave an IC50 of 43.7 nM.
Molecule `CCCNc1cc2c(c(C(=O)NC[C@@H]3CCN(CCCOC)C[C@H]3O)c1)OCCCO2` [compound 148] has an IC50 of 100 nM.
In the case of `CCCNc1cc2c(c(C(=O)NC[C@@H]3CCNC[C@H]3O)c1)OCCCO2` [compound 149], the IC50 is reported as 3550 nM.
Work on `CCCCNc1cc2c(c(C(=O)NC[C@@H]3CCN(CCCC#N)C[C@H]3O)c1)OCCCO2` [compound 150] yielded an IC50 of 120 nM.
For `CCCNc1cc2c(c(C(=O)NC[C@@H]3CCN(CCCO)C[C@H]3O)c1)OCCCO2` [compound 151], the IC50 was 89.1 nM.
For `Nc1cc(C(=O)NC[C@@H]2CCN(CC3CCCO3)C[C@H]2O)c2c(c1Br)OCCCO2` (some centres unmarked) [compound 152], the IC50 was 24 nM.
`CCCCN1CC[C@@H](CNC(=O)c2cc(N)c(Br)c3c2OCCO3)[C@H](O)C1` [compound 153] showed an IC50 of 13.8 nM.
`CCCCNc1cc2c(c(C(=O)NC[C@@H]3CCNC[C@H]3O)c1)OCCCO2` [compound 154] was tested, and the IC50 was 3160 nM.
For `COCCCN1CC[C@@H](CNC(=O)c2cc(N)c(Br)c3c2OCCCO3)[C@H](O)C1` [compound 155], the IC50 was 55 nM.
In the case of `CCCCNc1cc2c(c(C(=O)NC[C@@H]3CCN(CCCO)C[C@H]3O)c1)OCCCO2` [compound 156], the IC50 is reported as 46.8 nM.
Molecule `CCCCNc1cc2c(c(C(=O)NC[C@@H]3CCN(CCCOC)C[C@H]3O)c1)OCCCO2` [compound 157] has an IC50 of 81.3 nM.
`N#CCCCN1CC[C@@H](CNC(=O)c2cc(C#N)cc3c2OCCCO3)[C@H](O)C1` [compound 160] was tested, and the IC50 was 20 nM.
In the case of `CCCCN1CC[C@@H](CNC(=O)c2cc(NCC)cc3c2OCCCO3)[C@H](O)C1` [compound 161], the IC50 is reported as 85.1 nM.
